The values that follow come from ChEMBL document CHEMBL1201862, “PubChem BioAssay data set” (2004).

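Tested at 5 concentrations; 48 h exposure; 96-well plates; endpoints linearly interpolated, else capped at highest concentration. Abbreviation: GI50, concentration required for 50% inhibition of growth.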 Activity calls are given as the source filed them. No stated cut-off is given here; in the data, active = GI50 up to about 1.1 µM and inactive = higher.

Some test systems named below: SK-OV-3; M14; IGROV-1; HT-29; SF-539; SK-MEL-5; 786-0; MCF7; RPMI-8226; MDA-MB-435; Hs-578T; NCI-H460; A549; Malme-3M; UACC-62; SNB-19; HOP-62; MDA-N; CCRF-CEM.
Test in all cases: NCI-60 cell line screen, 48 h

Take `C=C(c1ccc2[nH]c(NC(=O)OC)nc2c1)c1cccs1`: the GI50 in the experiment on SK-OV-3 was 0.135 µM (active); in the experiment with M14, 0.247 µM (active); in the experiment on IGROV-1 it was 0.371 µM (active); in the experiment with HT-29, 0.0568 µM (active); in the experiment with SF-539 it was 0.0693 µM (active); in the experiment on SK-MEL-5, 0.0703 µM (active). In addition, the GI50 with 786-0 was 0.155 µM (active); in the experiment on MCF7 it was 0.0925 µM (active); in the experiment with RPMI-8226 it was 0.316 µM (active); with MDA-MB-435, 0.0259 µM (active); in the experiment with Hs-578T, 0.417 µM (active); in the experiment with NCI-H460 it was 0.118 µM (active). Besides, the GI50 is 0.16 µM (active) in the experiment with A549; 0.0855 µM (active) with Malme-3M; 0.121 µM (active) in the experiment on UACC-62; 0.198 µM (active) in the experiment on SNB-19; 0.206 µM (active) with HOP-62.

As for `Nc1cccc2cc(Cl)cnc12`, the GI50 in the experiment with SK-OV-3, in the experiment with M14, in the experiment with IGROV-1, with HT-29, with SF-539 and in the experiment on SK-MEL-5 was > 100 µM (inactive) each time. Besides, the GI50 is > 100 µM (inactive) with 786-0; > 100 µM (inactive) in the experiment with MDA-N; > 100 µM (inactive) with RPMI-8226; > 100 µM (inactive) in the experiment on MDA-MB-435; 36.3 µM (inactive) with Hs-578T; > 100 µM (inactive) in the experiment on NCI-H460. In addition, the GI50 in the experiment on CCRF-CEM is 16.1 µM (inactive); in the experiment on A549, > 100 µM (inactive); in the experiment on Malme-3M it was > 100 µM (inactive); in the experiment with UACC-62, 56.8 µM (inactive); in the experiment on SNB-19, > 100 µM (inactive); in the experiment on HOP-62 it was > 100 µM (inactive).

As for `NC1CC(=O)c2ccccc21` (stereo unspecified), the GI50 with SK-OV-3, in the experiment on M14, with IGROV-1, in the experiment on HT-29, with SF-539 and in the experiment with SK-MEL-5 was > 100 µM (inactive) each time. In addition, the GI50 in the experiment on 786-0, in the experiment with MCF7, in the experiment on RPMI-8226, with MDA-MB-435, with Hs-578T and in the experiment on CCRF-CEM was > 100 µM (inactive) in each case. For the same compound, the GI50 in the experiment with A549, with UACC-62, in the experiment on SNB-19 and with HOP-62 was > 100 µM (inactive) in each case.

Turning to `N#C/C(C(=O)NCc1ccccc1)=C(/N)N1CCCC1`, the GI50 in the experiment on SK-OV-3, in the experiment on M14, with IGROV-1, with HT-29, with SF-539 and in the experiment with SK-MEL-5 was > 100 µM (inactive) throughout. For the same compound, the GI50 with 786-0, with MDA-N, in the experiment with RPMI-8226, in the experiment with MDA-MB-435, in the experiment on Hs-578T and in the experiment with NCI-H460 was > 100 µM (inactive) throughout. For the same compound, the GI50 in the experiment on CCRF-CEM, with A549, in the experiment on Malme-3M, in the experiment on UACC-62, with SNB-19 and with HOP-62 was > 100 µM (inactive) throughout.

In the case of `O=[N+]([O-])C(=C(Nc1ccccc1)Nc1ccccc1)/C(Cl)=C(\Cl)Br`, the GI50 with M14 is 4.89 µM (inactive); with HT-29 it was 16.2 µM (inactive); in the experiment on SF-539, 22 µM (inactive); in the experiment with 786-0, 16.3 µM (inactive); in the experiment on MCF7, 12.5 µM (inactive); with RPMI-8226, 3.61 µM (inactive). The GI50 in the experiment with Hs-578T was 27 µM (inactive); in the experiment with NCI-H460 it was 21.3 µM (inactive); in the experiment with CCRF-CEM it was 2.15 µM (inactive); with A549, 20.7 µM (inactive); in the experiment on Malme-3M it was 16.5 µM (inactive); in the experiment on SNB-19, > 10 µM (inactive). Further, in the experiment with HOP-62, the GI50 was 22 µM (inactive).

On to `COC(=O)[C@@H]1CN(C(C)=O)C(=O)N1C(=O)OCc1ccccc1`, for which the GI50 in the experiment on SK-OV-3, in the experiment with M14, in the experiment on IGROV-1, with HT-29, in the experiment with SF-539 and in the experiment with SK-MEL-5 was > 100 µM (inactive) in each case. In addition, the GI50 in the experiment with 786-0, with MDA-N, in the experiment with RPMI-8226, in the experiment on MDA-MB-435, in the experiment on Hs-578T and in the experiment on NCI-H460 was > 100 µM (inactive) in each case. Further, the GI50 in the experiment on CCRF-CEM, in the experiment on A549, in the experiment with Malme-3M, with SNB-19 and in the experiment on HOP-62 was > 100 µM (inactive) each time.

With `CCc1ccccc1NC(=O)C(C#N)C1=C(Cl)C(=O)c2ccccc2C1=O` (stereo unspecified), the GI50 is 36.6 µM (inactive) with SK-OV-3; 6.71 µM (inactive) in the experiment with M14; 12.6 µM (inactive) in the experiment on IGROV-1; 14.1 µM (inactive) in the experiment with HT-29; 18.9 µM (inactive) with SF-539; 15.3 µM (inactive) with SK-MEL-5. In addition, the GI50 in the experiment with 786-0 is 15.5 µM (inactive); in the experiment on MCF7 it was 22.8 µM (inactive); in the experiment on RPMI-8226, 12.4 µM (inactive); with MDA-MB-435 it was 25.6 µM (inactive); in the experiment on Hs-578T, 19.3 µM (inactive); in the experiment on NCI-H460, 19.7 µM (inactive). Further, the GI50 in the experiment with CCRF-CEM was 3.41 µM (inactive); in the experiment with A549, 21.9 µM (inactive); in the experiment with Malme-3M it was 6.07 µM (inactive); in the experiment on UACC-62, 16.8 µM (inactive); in the experiment with SNB-19, 25.4 µM (inactive); with HOP-62, 19.1 µM (inactive).

Turning to `CCNCCNC(=O)c1ccc(Br)cc1`, the GI50 in the experiment on SK-OV-3, with M14, in the experiment on IGROV-1, in the experiment with HT-29, with SF-539 and in the experiment with SK-MEL-5 was > 100 µM (inactive) throughout. Besides, the GI50 in the experiment on 786-0, in the experiment on MCF7, with RPMI-8226, in the experiment with Hs-578T, in the experiment with NCI-H460 and in the experiment on CCRF-CEM was > 100 µM (inactive) each time. Further, the GI50 in the experiment on A549, with UACC-62 and in the experiment on SNB-19 was > 100 µM (inactive) throughout.

On to `Cc1c(-c2ccc(O)c(O)c2)oc(=O)c2c(O)cccc12`, for which the GI50 in the experiment on SK-OV-3 is 6.04 µM (inactive); in the experiment on M14, 8.05 µM (inactive); with IGROV-1 it was 5.82 µM (inactive); in the experiment with SF-539, 12.5 µM (inactive); with SK-MEL-5 it was 10.4 µM (inactive); with 786-0 it was 9.73 µM (inactive). In addition, the GI50 in the experiment with MCF7 was 6.68 µM (inactive); in the experiment on RPMI-8226, 13.7 µM (inactive); in the experiment on MDA-MB-435, 3.17 µM (inactive); in the experiment with Hs-578T it was 3.03 µM (inactive); in the experiment with NCI-H460, 11.6 µM (inactive); in the experiment on CCRF-CEM, 3.08 µM (inactive). The GI50 with A549 is 7.93 µM (inactive); in the experiment with Malme-3M, 13.3 µM (inactive); with SNB-19, 6.3 µM (inactive); in the experiment on HOP-62, 10.7 µM (inactive).

With `COC(=O)[C@@H]1[C@H](OC(C)=O)CCC2[C@@]3(C[C@@H](c4ccoc4)O[C@@H]3OC)[C@H](C)CC[C@]21C(=O)OC` (stereo partly specified), the GI50 in the experiment on SK-OV-3, in the experiment on M14, in the experiment with IGROV-1, with HT-29, in the experiment with SF-539 and with SK-MEL-5 was > 25 µM (inactive) in each case. For the same compound, the GI50 in the experiment with 786-0, in the experiment with MCF7, in the experiment on MDA-N, with RPMI-8226, in the experiment with MDA-MB-435 and in the experiment on Hs-578T was > 25 µM (inactive) each time. Besides, the GI50 with NCI-H460, in the experiment with CCRF-CEM, in the experiment on A549, in the experiment with UACC-62 and in the experiment with SNB-19 was > 25 µM (inactive) throughout.

As for `Cc1c(C)c(S(=O)(=O)N(CCCCCN)OCCCN)c(C)c2c1OC(C)(C)CC2`, the GI50 is 13.4 µM (inactive) with SK-OV-3; 27.7 µM (inactive) with M14; 2.82 µM (inactive) in the experiment on IGROV-1; 13 µM (inactive) in the experiment on HT-29; > 25.3 µM (inactive) with SF-539; 14.2 µM (inactive) with SK-MEL-5. The GI50 was 6.62 µM (inactive) in the experiment with 786-0; 4.73 µM (inactive) with MDA-N; 3.6 µM (inactive) in the experiment with RPMI-8226; 5.82 µM (inactive) in the experiment with MDA-MB-435; 6.73 µM (inactive) with Hs-578T; 6.35 µM (inactive) in the experiment on NCI-H460. The GI50 in the experiment on CCRF-CEM was 2.6 µM (inactive); with A549, 16 µM (inactive); in the experiment on Malme-3M, 14.3 µM (inactive); in the experiment with UACC-62 it was 12.9 µM (inactive); in the experiment with SNB-19, 7.91 µM (inactive); in the experiment on HOP-62, 8.05 µM (inactive).

On to `Nc1ccc(/N=N\c2ccc(-c3ccc(O)cc3)cc2)c2ccc(S(=O)(=O)O)cc12`, for which the GI50 with SK-OV-3, in the experiment on M14, in the experiment on IGROV-1, in the experiment on HT-29, in the experiment with SF-539 and in the experiment on SK-MEL-5 was > 100 µM (inactive) in each case. Moreover, the GI50 with 786-0, in the experiment on MCF7, in the experiment with RPMI-8226, in the experiment with MDA-MB-435, in the experiment on Hs-578T and in the experiment on NCI-H460 was > 100 µM (inactive) in each case. In addition, the GI50 with CCRF-CEM, in the experiment with A549, with Malme-3M, in the experiment with UACC-62, in the experiment on SNB-19 and in the experiment on HOP-62 was > 100 µM (inactive) each time.
